According to patent US20160016907A1, “PYRIDINE DERIVATIVES AS MUSCARINIC M1 RECEPTOR POSITIVE ALLOSTERIC MODULATORS” (PFIZER INC., priority 2014, published 2016):
Where a name gives a salt, the structure may show the parent alone.

Target: T1, human M1 muscarinic acetylcholine receptors (Homo sapiens, UniProt P11229)
T1 sequence (P11229 1-460): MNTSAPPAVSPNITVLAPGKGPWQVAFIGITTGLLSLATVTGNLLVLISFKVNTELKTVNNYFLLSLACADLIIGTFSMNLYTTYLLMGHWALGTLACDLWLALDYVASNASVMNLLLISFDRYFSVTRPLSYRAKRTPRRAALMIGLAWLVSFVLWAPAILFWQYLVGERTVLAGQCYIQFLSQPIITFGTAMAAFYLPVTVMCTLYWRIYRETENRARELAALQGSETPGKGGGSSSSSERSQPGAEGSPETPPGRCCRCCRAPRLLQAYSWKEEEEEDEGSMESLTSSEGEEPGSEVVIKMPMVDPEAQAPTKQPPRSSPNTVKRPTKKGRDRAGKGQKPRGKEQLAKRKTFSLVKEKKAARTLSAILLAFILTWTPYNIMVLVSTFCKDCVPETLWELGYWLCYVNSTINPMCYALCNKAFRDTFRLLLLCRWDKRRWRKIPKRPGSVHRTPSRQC
Test: M1 FLIPR assay (PAM, intracellular calcium)
Type: cell-based
Details: potentiation of EC10-EC30 acetylcholine, values marked a: geometric mean of ≧7 determinations, read-out: M1 PAM Inflection Point (μM) Geometric mean of 2-6 determinations (unless otherwise indicated)
Description: This assay was designed to select and characterize compounds that affect the activity of human M1 muscarinic acetylcholine receptors (Similar M1 PAM FLIPR assays can be found, for example, at U.S. Pat. No. 8,664,234). Human M1 receptors were stably expressed in Chinese hamster ovary (CHO) cells (HD Bioscience). The effect of test compounds on intracellular calcium was measured on an FLIPR Tetra (Molecular Devices) using the Fluo-8, AM calcium dye (Molecular Probes) with a red dye quenching agent (Sigma).
CHO cells expressing hM1 cells had been previously cultured and frozen in assay ready vials. Cell vials were thawed, then plated at a density of 10,000 cells per well in a 384 well black wall, clear bottom plate (Greiner #781090) and incubated overnight at 37 degrees C. with 5% CO2. Cells were grown and plated in F12 nutrient media (Gibco BRL #21700-075) supplemented with 10% FBS (Hyclone #CH30160.03) and Pen/Strep (Gibco #15070-063).
After overnight incubation, cell plates were removed from the incubator and the growth media was discarded and replaced with loading solution containing the following: 2 μM Fluo-8-AM (Molecular Probes #F14242), 2 mM Probenecid (Sigma #P8761), lx Acid Red 1 (Sigma #210633), in HBSS buffer containing (grams/L): 0.1 CaCl2, 0.1 MgCl2*6H2O, 0.049 MgSO4, 0.4 KCl, 0.06 KH2PO4, 8.06 NaCl, 0.12 Na2HPO4*12H2O, 1.1 D-glucose*H2O, 0.35 NaHCO3, 4.766 HEPES, pH 7.4. The plate was incubated in the loading solution at 37 degrees C. in the dark for 1 hour.
Test compounds were initially prepared as 100% DMSO stock solutions, then transferred and serially diluted in 384-well compound plates (Greiner #784201). Each compound was tested at 10 concentrations in duplicate per experiment. Positive and negative controls for positive allosteric modulator evaluation were 30 μM acetylcholine (Ach) and an EC10-EC30 concentration of acetylcholine, approximately 2 nM but could be adjusted for each experiment to maintain the EC10-EC30 range.
After the 1-hour dye loading incubation, test compounds were added to the cell plate containing Fluo-8. Approximately 10 minutes after compound addition, an EC10-EC30 concentration of acetylcholine was added to each well and the fluorescence measured to determine the PAM potentiation of the compound.
Data was exported from the FLIPR Tetra as maximum fluorescence/minimum fluorescence for each well. The percent effect for each compound well was determined using the mean values for the positive and negative controls on each plate for each read. Percent effect was 100*(compound negative control)/(positive control negative control). Dose response curves were fitted to the compound percent effect data using a 4-parameter logistic fit model to determine PAM (positive allosteric modulator) Inflection Point values. Compounds with inverted U dose response curves had the concentrations greater than the concentration giving the peak response excluded from the fit. Data was reported as Inflection Point. The compounds of Examples 1-72 had activity according to this assay, generally with an Inflection Point (IP) of 10 μM or less (using Inflection Point as a measure of activity). Such a result is indicative of the intrinsic activity of the compounds of the invention as M1 allosteric modulators.

Row | Compound | EC50
1 | Cc1cnc(C(=O)N[C@H]2CCOC[C@@H]2O)cc1Cc1ccc(-n2cccn2)cc1 [Example 9, N-[(3R,4S)-3-Hydroxytetrahydro-2H-pyran-4-yl]-5-methyl-4-[4-(1H-pyrazol-1-yl)benzyl]pyridine-2-carboxamide] | 0.109 µM
2 | Cc1cnc(C(=O)N[C@H]2CC[C@@H](O)CC2)cc1Cc1ccc(-n2cccn2)cc1 [Example 29, N-(cis-4-hydroxycyclohexyl)-5-methyl-4-[4-(1H-pyrazol-1-yl)benzyl]pyridine-2-carboxamide] | 3.82 µM
3 | Cc1nc(C(=O)N[C@H]2CCOC[C@@H]2O)cc(Cc2ccc(-n3cccn3)cc2)c1Cl [Example 14, 5-Chloro-N-[(3R,4S)-3-hydroxytetrahydro-2H-pyran-4-yl]-6-methyl-4-[4-(1H-pyrazol-1-yl)benzyl]pyridine-2-carboxamide] | 0.116 µM
4 | COc1cnc(C(=O)N[C@H]2CCCC[C@@H]2O)cc1Cc1ccc(-c2cocn2)cc1 [Example 71, N-[(1S,2S)-2-hydroxycyclohexyl]-5-methoxy-4-[4-(1,3-oxazol-4-yl)benzyl]pyridine-2-carboxamide] | 0.125 µM
5 | Cc1cnc(C(=O)N[C@@H]2CCCCNC2=O)cc1Cc1ccc(-n2cccn2)cc1 [Example 37, 5-methyl-N-[(3R)-2-oxoazepan-3-yl]-4-[4-(1H-pyrazol-1-yl)benzyl]pyridine-2-carboxamide] | 3.56 µM
6 | Cc1cnc(C(=O)NCC2(O)CCC2)cc1Cc1ccc(-n2cccn2)cc1 [Example 44, N-[(1-hydroxycyclobutyl)methyl]-5-methyl-4-[4-(1H-pyrazol-1-yl)benzyl]pyridine-2-carboxamide] | 2.7 µM
7 | Cc1noc(CNC(=O)c2cc(Cc3ccc(-n4cccn4)cc3)c(C)cn2)n1 [Example 31, 5-methyl-N-[(3-methyl-1,2,4-oxadiazol-5-yl)methyl]-4-[4-(1H-pyrazol-1-yl)benzyl]pyridine-2-carboxamide] | 8.63 µM
8 | Cc1cnc(C(=O)N[C@H]2CCCC[C@@H]2O)cc1C(F)c1ccc(-n2cccn2)cc1 (single isomer, unassigned) [Example 64] | 0.033 µM
9 | COc1ccc(Cc2cc(C(=O)N[C@H]3CCCC[C@@H]3O)ncc2C)cc1 [Example 50, N-[(1S,2S)-2-hydroxycyclohexyl]-4-(4-methoxybenzyl)-5-methylpyridine-2-carboxamide] | 3.48 µM
10 | Cc1cnc(C(=O)NC[C@@H]2CCCO2)cc1Cc1ccc(-n2cccn2)cc1 [Example 16, 5-Methyl-4-[4-(1H-pyrazol-1-yl)benzyl]-N-[(2S)-tetrahydrofuran-2-ylmethyl]pyridine-2-carboxamide, formate salt] | 1.82 µM

Now from value to molecule:

Row | EC50 | Compound
11 | 0.086 µM | COc1cnc(C(=O)N[C@H]2CCOC[C@@H]2O)cc1Cc1ccc(-c2coc(C)n2)cc1 [Example 58, N-[(3R,4S)-3-Hydroxytetrahydro-2H-pyran-4-yl]-5-methoxy-4-[4-(2-methyl-1,3-oxazol-4-yl)benzyl]pyridine-2-carboxamide]
12 | 6.34 µM | Cc1nc(-c2ccc(Cc3cc(C(=O)NC4CCOCC4O)ncc3C)cc2)co1 (single isomer, unassigned; (-)) [Example 10, (−)-N-[(3,4-trans)-3-Hydroxytetrahydro-2H-pyran-4-yl]-5-methyl-4-[4-(2-methyl-1,3-oxazol-4-yl)benzyl]pyridine-2-carboxamide]
13 | 0.18 µM | Cc1cnc(C(=O)NC2CCOCC2O)cc1Cc1ccc(-c2cncs2)cc1 (single isomer, unassigned; ent-2) [Example 5, N-[(3,4-trans)-3-Hydroxytetrahydro-2H-pyran-4-yl]-5-methyl-4-[4-(1,3-thiazol-5-yl)benzyl]pyridine-2-carboxamide, ENT-2]
14 | 8.11 µM | Cc1cnc(C(=O)NC2CCOCC2O)cc1Cc1ccc(-c2cncs2)cc1 (single isomer, unassigned; ent-1) [Example 4, N-[(3,4-trans)-3-Hydroxytetrahydro-2H-pyran-4-yl]-5-methyl-4-[4-(1,3-thiazol-5-yl)benzyl]pyridine-2-carboxamide, ENT-1]
15 | > 9.94 µM | Cc1nnc(-c2ccc(Cc3cc(C(=O)NC4CCOCC4O)ncc3C)cc2)o1 (single isomer, unassigned) [Example 20]
16 | 6.65 µM | Cc1cnc(C(=O)NC[C@H](C)O)cc1Cc1ccc(-n2cccn2)cc1 [Example 36, N-[(2S)-2-hydroxypropyl]-5-methyl-4-[4-(1H-pyrazol-1-yl)benzyl]pyridine-2-carboxamide]
17 | 2.73 µM | Cc1cnc(C(=O)NCC2CCCO2)cc1Cc1ccc(-n2cccn2)cc1 (centres unmarked) [Example 35, 5-methyl-4-[4-(1H-pyrazol-1-yl)benzyl]-N-(tetrahydrofuran-2-ylmethyl)pyridine-2-carboxamide]
